In a melting point compilation (Tetko et al.; mined from patent text by program, amines drawn as free bases though some values may be those of a salt) one finds melting point data, which are given here for 91 molecules.

By melting point is commonly meant the temperature of the solid-liquid transition.

Molecules are shown by their SMILES.

Take `N#Cc1cccc(CCc2n[nH]c3c2c(=O)n(-c2ccccc2)c2ncccc32)c1`: the melting point lay within 220 to 224 °C. Molecule `CCCc1cc(COc2cc(C)nc(C)c2OC)ccc1-c1ccccc1S(=O)(=O)Nc1noc(C)c1C` had a melting point of 56 to 59 °C. In the case of `CN(C)n1cc(C(=O)NCc2ccc(Cl)cc2)c(=O)c2ccccc21` it was 170 to 172 °C. Molecule `COC(=O)c1ccc(Cl)c(-n2nn[nH]c2=O)c1Cl` showed a melting point of 192 to 193 °C.

Consider `CCn1c(=O)nc(-c2ccccc2)c2cc(Cl)ccc21`, for which the melting point was in the range of 176 to 178 °C. Next, `O=c1[nH]cnc2c1-c1ccc(Cl)cc1C(c1ccccc1)=NC2`: 226 to 229 °C.

In turn, `COc1ccc(N2C(=O)C3=C(SCCS3)C2OC(=O)N2CCN(C)CC2)nn1` (stereo unspecified) yielded a melting point of 196 to 198 °C. Next, `CCn1c(=O)ccc2cnc(Nc3cccc(F)c3OC)nc21`: 92 to 93 °C; `COc1ccc(CCC(=O)c2ccc(O)cc2)c(OC)c1`: 126 to 127 °C; `Cc1ccc(CN(O)C(N)=O)s1`: 134 °C.

On to `COc1cc(NS(=O)(=O)c2ccc3c(c2)CCN3C=O)cc(OC)c1OC`, for which the melting point lay within 200 to 201 °C. In the case of `Nc1ccc(-c2ccc(Cl)cc2)c(Cl)n1` it was 178 to 182 °C.

For `COc1cccc(CNC(=O)c2nc3scc(CC(=O)O)c3c(=O)[nH]2)c1`, the melting point lay in the range of 228 to 229 °C. In the case of `N#CCC1CCSc2sccc2C1=O` (stereo unspecified) it was 68 to 70 °C; in that of `COc1cc(OC)nc(Oc2cccc(NC(=O)C(C)(C)C)c2C(=O)O)n1`, 192 to 195 °C; in that of `CN(C)c1ncc([N+](=O)[O-])cc1Cl`, 111 to 113 °C. For `O=C(O)CC1(c2ccc(F)cc2)CNC(=O)C1` (stereo unspecified), the melting point was 174 to 176 °C. Take `COC(c1ccc(Cl)c2nc3n(c12)CCCN3c1ccc(Cl)cc1Cl)C1CC1` (stereo unspecified): the melting point lay within 138 to 139 °C. Consider `CN1C(=O)CNN(c2cc(Cl)c(Oc3ccc(S(C)(=O)=O)cc3)c(Cl)c2)C1=O`, for which the melting point is 217 °C. Next, `Cc1cc(COc2ccc(CC(=O)O)cc2Cl)ccc1OC(C)C`: 104 to 105 °C; `CCCc1cc(Cl)c2oc(Cc3ccc(OC(C)=O)cc3)c(C)c2c1OC(C)=O`: 119 to 120 °C.

As to `O=C(O)C(CCC1=CCCCC1)Oc1ccc(-c2ccc(Cl)s2)cc1` (stereo unspecified), the melting point is 136 to 138 °C. In the case of `Cc1nc(N2CCN(Cc3ccccc3)C2=O)sc1C(=O)NCc1ccncc1` it was 96 to 97 °C; in that of `Oc1ccc(-c2c3ccccc3cc3sc4ccccc4c23)cc1O`, 188 to 189 °C; in that of `Cc1c(-c2ccccc2)nn(C(C)C(=O)N(C)C)c1C` (stereo unspecified), 76 to 79 °C.

On to `CCOC(=O)N(c1ccc(C(O)(C(F)(F)F)C(F)(F)F)cc1)S(C)(=O)=O`, for which the melting point lay in the range of 108 to 112 °C. In the case of `O=c1c2cc(Cl)c(Cl)cc2nc2n1CS(=O)(=O)N2` it was > 300 °C; in that of `O=C1CCC(=O)N1CCc1ccc(OC(F)(F)F)cc1`, 91 to 93 °C; in that of `C=CS(=O)(=O)NCCCc1ccc(C2=NNC(=O)CC2)cc1`, 133 to 135 °C. Next, `CC(C)(C)OC(=O)NC[C@H]1CC[C@H](CI)CC1`: 81 to 83 °C; `Cc1ccc2c(c1)CN(C)C(=O)CC2`: 75 to 76 °C.

With `Cc1csc(-c2ccc3c(=O)n(CC(C)C)c(CN)c(-c4ccccc4)c3c2)n1`, the melting point lay within 162 to 163 °C. Next, `COc1cc(OC)c(C(=O)N(C)OC)cc1Cl`: 97 to 99 °C; `CCCOC(=O)c1c(CBr)nc2cc(OC)c(OC)cc2c1-c1ccc(OC)c(OC)c1`: 144 to 145 °C; `CN1COc2c(N3CC4CCOC4(CNC(=O)OC(C)(C)C)C3)c(F)cc3c(=O)c(C(=O)O)cn1c23` (stereo unspecified): 176 °C. `O=C1NC(=O)C(c2c[nH]c3ccccc23)=C1c1ccccc1`: the melting point was 256 °C. Next, `NC(=O)CCN1C(=O)[C@@H](CC(=O)NCCc2ccc(Br)cc2)S[C@H]1c1ccc(C#Cc2ccccc2)s1` (relative stereo): 224 to 227 °C; `CCC(CC)c1nn(-c2ccc(C(F)(F)F)cn2)cc1CCCOc1c(F)cccc1CC(=O)O`: 102 to 103 °C; `COc1ccc(F)cc1C(C)(C)CC(=O)C(=O)O`: 58 to 60 °C. Next, `C=Cc1cc(-c2cccnc2)no1`: 60 to 64 °C; `CCCCOc1c(CNC(=O)OC(C)(C)C)n(CC(C)C)c(=O)c2ccc(C#N)cc12`: 126 to 127 °C. On to `CSCC[C@H](N)C(=O)NC(=O)N(CCCl)N=O`, for which the melting point lay within 95 to 97 °C.

`CCN1CCN(c2ccc(NC(=O)Nc3ccc(Oc4cc(Cl)ncn4)cc3)cc2OC)CC1` had a melting point of 170 to 171 °C. Next, `O=[N+]([O-])c1cnccc1N1CCc2ccccc21`: 159 to 160 °C; `CCOC(=O)C(CCc1ccccc1)N[C@H]1CSC(c2ccccc2)N(CC(=O)O)C1=O` (stereo partly specified): 47 to 52 °C.

In turn, `CC(C)Oc1ccc(CCCOc2cc(CCC(=O)O)n(C)n2)c(OCc2ccc(Cl)cc2Cl)c1` registered a melting point of 125 to 127 °C. Next, `CCCCc1cc2c(=O)n3cc(C(=O)O)ccc3nc2s1`: 250 to 252 °C; `CCN(CC)S(=O)(=O)c1cc(Cl)cc(O)c1O`: 62 to 64 °C.

Regarding `CN(C)S(=O)(=O)Cc1ccccc1C(=O)O`, the melting point is 112 to 119 °C. `CC(C)(CNc1nc(Cl)ncc1Cl)NS(C)(=O)=O`: the melting point was 143 to 145 °C. In the case of `CS(=O)(=O)c1ccc(C2=C(c3ccccc3)C(=O)OC23CCCC3)cc1` it was 142 to 143 °C; in that of `CN(C)c1c(F)c(F)c(F)c(F)c1C(=O)O`, 90 to 100 °C; in that of `O=C(NCCc1ccncc1)c1[nH]c2ccc(Cl)cc2c1S(=O)(=O)c1ccccc1`, 258 to 260 °C. In the case of `COC(=O)Cc1ccc(C(C)=O)cc1` it was 44 °C; in that of `CC(C)N1CCc2[nH]c3ccc4scc(-c5ccccc5)c4c3c2C1`, 204 °C. Next, `C(=C\c1nc(COc2cccc(CCCn3cncn3)c2)co1)/c1ccccc1`: 59 to 60 °C; `Cc1ccc(S(=O)(=O)N(C)c2ncc(Cl)cc2[N+](=O)[O-])cc1`: 141 to 143 °C; `CSc1ncc(S(=O)(=O)NC(C)(C)C)c(Cl)n1`: 117 to 118 °C. As for `CC#CCOc1cc(-n2nnn(CCC)c2=O)c(Cl)cc1Cl`, the melting point is 58 to 60 °C. Next, `Clc1cc(Br)c2c(c1)OCCO2`: 56.5 to 58 °C; `CC(C)n1ncc2c(N(C)N)ncnc21`: 105 to 108 °C; `O=C(O)c1ccc2c(c1)C(=O)C(=Cc1ccccc1)O2`: 285 to 287 °C. `CN(C(=S)NC(=O)c1ccccc1)c1ccc(-c2ncn(-c3ccc(OC(F)(F)F)cc3)n2)cc1` had a melting point of 166 to 169 °C.

Turning to `NC(=O)c1cn(Cc2cccc(F)c2F)cn1`, the melting point lay in the range of 221 to 222 °C. Next, `CC(C)(C)c1cc(SC2(Sc3cc(C(C)(C)C)c(O)c(C(C)(C)C)c3)CCCC2)cc(C(C)(C)C)c1O`: 138 to 143 °C; `CCCCCCCCCC(=O)OC1=C(c2nnc(CCCCCCCCC)o2)N(C)S(=O)(=O)c2ccccc21`: 68 to 69 °C.

`CCOC(=O)c1cc2cc(OCCCOC)cc(NS(=O)(=O)c3ccccn3)c2[nH]1`: the melting point is 126 to 127 °C. In the case of `CC(=O)OC1NC(=O)C2=C1c1ccc(Cl)cc1C(c1ccccc1Cl)=NC2` (stereo unspecified) it was 219 to 221 °C; in that of `COCc1cc(NCc2ccccc2C)c2ccccc2n1`, 194 to 195 °C. In the case of `CC(C)(C)S(=O)(=O)CS(=O)(=O)C(C)(C)C` it was 152 to 155 °C; in that of `Oc1ccc(Nc2cc(-c3ccccc3)[nH]n2)cc1`, 215 to 217 °C; in that of `CNCC1Cc2cc(Cl)cc(C3CCCCC3)c2O1` (stereo unspecified), 125 to 128 °C. `C/C(=C\c1ccc(CO)cc1)c1ccc2c(c1)C(C)(C)C(O)CC2(C)C` (stereo unspecified) displayed a melting point of 182 to 183 °C. Next, `O=Cc1ccc2c(c1)ncn2-c1cccc(-c2cccnc2)c1`: 200 to 202 °C.

The molecule `COC(=O)c1nc(C)c2[nH]c3ccccc3c2c1I` registered a melting point of 280 to 286 °C. Next, `CCOC(=O)c1cnn(-c2ccc(OCC(C)C)c(C#N)c2)c1Cl`: 87 °C; `O=C(CC(F)=C(F)F)Nc1ccc(S(=O)(=O)O)cc1`: > 300 °C. With `CS(=O)(=O)c1cccc(-c2ccccc2[N+](=O)[O-])c1`, the melting point fell in the range of 124 to 125 °C. Next, `NC(=O)Cn1ccc2cccc(NC(c3ccc4c(cnn4-c4ccc(F)cc4)c3)C(F)(F)F)c21` (stereo unspecified): 105 °C; `CC(C)C(=O)c1ccc2oc3ncccc3c(=O)c2c1`: 155 to 156 °C; `COc1ccccc1NC(=O)Nc1ccc(N2CCN(C(=O)Nc3ccc(OCCO)cc3C(F)(F)F)CC2)cc1`: 118 to 120 °C. Next, `CCCCOC(=O)C=Nc1cc(Cl)ccc1C(=O)O`: 130 °C; `COc1c(C)c(N2CCN(c3ccc(OC(F)F)cc3)CC2)c(C)c2c1OC(C)(C)C2`: 151 to 152 °C; `COc1ccc2cccc(C(=O)C(N)=O)c2c1`: 112 °C. Molecule `C#C[C@H](Cc1cccc(F)c1)n1nnc2cc3c(cc2c1=O)OCN(C1CC1)C3=O` displayed a melting point of 168 to 180 °C. In the case of `O=C(CN1CCC(n2c(=O)[nH]c3ccccc32)CC1)c1ccc(OCc2ccccc2)c(OCc2ccccc2)c1` it was 118 to 120 °C; in that of `CC(C)(C)C(=O)C(=Cc1cccnc1)Oc1ccc(Cl)cc1`, 74 to 76 °C; in that of `COc1ccc(N2CCOCC2)c2sc(-c3nc4c([nH]3)COCC4)nc12`, 203 to 204 °C.

As to `CCCCCCCCCCCCOC(=O)NCCC(=O)O`, the melting point lay in the range of 88 to 90 °C. In the case of `COc1oc(=O)n(-c2ccccc2)c1C` it was 81 to 83.5 °C.

Consider `S=C1Nc2cc(Br)ccc2-n2ccc3cccc1c32`, for which the melting point was 214 to 215 °C.
